Measured values: ChEMBL document CHEMBL1255262, “Antimicrobial activity of omiganan pentahydrochloride against contemporary fungal pathogens responsible for catheter-associated infections” (2008)
≈ marks a conversion by molar mass, not a printed value. Peptide text beside a SMILES is read from it.

Key:
Assay type in all cases: functional
Nakaseomyces glabratus [1] = test: Antifungal activity against Candida glabrata assessed as resistant isolates after 48 hrs by broth microdilution
Candida albicans [2] = test: Antifungal activity against Candida albicans after 48 hrs by broth microdilution
Talaromyces marneffei = test: Antifungal activity against Penicillium marneffei after 48 hrs by broth microdilution
Nakaseomyces glabratus [3] = test: Antifungal activity against Candida glabrata assessed as susceptible isolates after 48 hrs by broth microdilution
Penicillium sp. = test: Antifungal activity against Penicillium sp. after 48 hrs by broth microdilution
Paecilomyces variotii = test: Antifungal activity against Paecilomyces variotii after 48 hrs by broth microdilution
Pichia kudriavzevii [4] = test: Antifungal activity against Candida krusei assessed as susceptible isolates after 48 hrs by broth microdilution
Candida albicans [5] = test: Antifungal activity against Candida albicans assessed as resistant isolates after 48 hrs by broth microdilution
Candida parapsilosis [6] = test: Antifungal activity against Candida parapsilosis assessed as susceptible isolates after 48 hrs by broth microdilution
Candida albicans [7] = test: Antifungal activity against Candida albicans assessed as susceptible isolates after 48 hrs by broth microdilution
Candida tropicalis [8] = test: Antifungal activity against Candida tropicalis after 48 hrs by broth microdilution
Aspergillus sp. = test: Antifungal activity against Aspergillus sp. after 48 hrs by broth microdilution
Pichia kudriavzevii [9] = test: Antifungal activity against Candida krusei after 48 hrs by broth microdilution
Nakaseomyces glabratus [10] = test: Antifungal activity against Candida glabrata after 48 hrs by broth microdilution
Curvularia = test: Antifungal activity against Curvularia species after 48 hrs by broth microdilution
Candida tropicalis [11] = test: Antifungal activity against Candida tropicalis assessed as resistant isolates after 48 hrs by broth microdilution
Candida parapsilosis [12] = test: Antifungal activity against Candida parapsilosis after 48 hrs by broth microdilution
Fusarium sp. = test: Antifungal activity against Fusarium sp. after 48 hrs by broth microdilution
Candida parapsilosis [13] = test: Antifungal activity against Candida parapsilosis assessed as resistant isolates after 48 hrs by broth microdilution
Pichia kudriavzevii [14] = test: Antifungal activity against Candida krusei assessed as resistant isolates after 48 hrs by broth microdilution
Candida tropicalis [15] = test: Antifungal activity against Candida tropicalis assessed as susceptible isolates after 48 hrs by broth microdilution

| Compound | MIC50 (Candida albicans [2]) | MIC90 (Candida albicans [2]) | MIC50 (Talaromyces marneffei) | MIC90 (Talaromyces marneffei) | MIC50 (Penicillium sp.) | MIC90 (Penicillium sp.) | MIC50 (Paecilomyces variotii) | MIC90 (Paecilomyces variotii) | MIC50 (Candida tropicalis [8]) | MIC90 (Candida tropicalis [8]) | MIC50 (Aspergillus sp.) | MIC90 (Aspergillus sp.) | MIC50 (Pichia kudriavzevii [9]) | MIC90 (Pichia kudriavzevii [9]) | MIC50 (Nakaseomyces glabratus [10]) | MIC90 (Nakaseomyces glabratus [10]) | MIC50 (Curvularia) | MIC90 (Curvularia) | MIC50 (Fusarium sp.) | MIC90 (Fusarium sp.) | also measured |
| --- | --- | --- | --- | --- | --- | --- | --- | --- | --- | --- | --- | --- | --- | --- | --- | --- | --- | --- | --- | --- | --- |
| Nc1nc(=O)[nH]cc1F [FLUCYTOSINE] | 0.12 µg/mL (≈ 0.93 µM) | 1 µg/mL (≈ 7.75 µM) | > 64 µg/mL | > 64 µg/mL | > 64 µg/mL | > 64 µg/mL | > 64 µg/mL | > 64 µg/mL | 0.06 µg/mL (≈ 0.465 µM) | 0.12 µg/mL (≈ 0.93 µM) | > 64 µg/mL | > 64 µg/mL | 16 µg/mL (≈ 124 µM) | 32 µg/mL (≈ 248 µM) | 0.06 µg/mL (≈ 0.465 µM) | 0.06 µg/mL (≈ 0.465 µM) | > 64 µg/mL | > 64 µg/mL | > 64 µg/mL | > 64 µg/mL | Activity (Nakaseomyces glabratus [1]): 0%; Activity (Nakaseomyces glabratus [3]): 100%; Activity (Pichia kudriavzevii [4]): 0%; Activity (Candida albicans [5]): 0%; Activity (Candida parapsilosis [6]): 100%; Activity (Candida albicans [7]): 100%; MIC (Candida tropicalis [8]): 0.06 µg/mL (≈ 0.465 µM); Activity (Candida tropicalis [11]): 0%; MIC50 (Candida parapsilosis [12]; Lodderomyces parapsilosis): 0.12 µg/mL (≈ 0.93 µM); MIC90 (Candida parapsilosis [12]; Lodderomyces parapsilosis): 0.12 µg/mL (≈ 0.93 µM); Activity (Candida parapsilosis [13]): 0%; Activity (Pichia kudriavzevii [14]): 30%; Activity (Candida tropicalis [15]): 100% |
| OC(Cn1cncn1)(Cn1cncn1)c1ccc(F)cc1F [FLUCONAZOLE] | 1 µg/mL (≈ 3.27 µM) | > 64 µg/mL | > 64 µg/mL | > 64 µg/mL | > 64 µg/mL | > 64 µg/mL | > 64 µg/mL | > 64 µg/mL | 0.25 µg/mL (≈ 0.816 µM) | > 64 µg/mL | > 64 µg/mL | > 64 µg/mL | 32 µg/mL (≈ 104 µM) | 64 µg/mL (≈ 209 µM) | 4 µg/mL (≈ 13.1 µM) | > 64 µg/mL | > 64 µg/mL | > 64 µg/mL | > 64 µg/mL | > 64 µg/mL | Activity (Nakaseomyces glabratus [1]): 18.2%; Activity (Nakaseomyces glabratus [3]): 77.3%; Activity (Pichia kudriavzevii [4]): 0%; Activity (Candida albicans [5]): 30.8%; Activity (Candida parapsilosis [6]): 81.8%; Activity (Candida albicans [7]): 67.3%; MIC (Pichia kudriavzevii [9]): 32 µg/mL (≈ 104 µM); Activity (Candida tropicalis [11]): 18.2%; MIC (Candida parapsilosis [12]; Lodderomyces parapsilosis): 0.5 µg/mL (≈ 1.63 µM); MIC50 (Candida parapsilosis [12]; Lodderomyces parapsilosis): 0.5 µg/mL (≈ 1.63 µM); MIC90 (Candida parapsilosis [12]; Lodderomyces parapsilosis): 16 µg/mL (≈ 52.2 µM); Activity (Candida parapsilosis [13]): 0%; Activity (Pichia kudriavzevii [14]): 100%; Activity (Candida tropicalis [15]): 81.8% |
| CC[C@H](C)[C@H](N)C(=O)N[C@@H](CC(C)C)C(=O)N[C@@H](CCCNC(=N)N)C(=O)N[C@@H](Cc1c[nH]c2ccccc12)C(=O)N1CCC[C@H]1C(=O)N[C@@H](Cc1c[nH]c2ccccc12)C(=O)N[C@@H](Cc1c[nH]c2ccccc12)C(=O)N1CCC[C@H]1C(=O)N[C@@H](Cc1c[nH]c2ccccc12)C(=O)N[C@@H](CCCNC(=N)N)C(=O)N[C@@H](CCCNC(=N)N)C(=O)N[C@@H](CCCCN)C(N)=O.Cl.Cl.Cl.Cl.Cl [OMIGANAN PENTAHYDROCHLORIDE] (H-ILRWPWWPWRRK-NH2) | 64 µg/mL | 128 µg/mL | 64 µg/mL | 256 µg/mL | 64 µg/mL | 256 µg/mL | 64 µg/mL | 256 µg/mL | 32 µg/mL | 32 µg/mL | 128 µg/mL | 1020 µg/mL | 64 µg/mL | 128 µg/mL | 256 µg/mL | 256 µg/mL | 64 µg/mL | 256 µg/mL | 64 µg/mL | 256 µg/mL | MIC50 (Candida parapsilosis [12]; Lodderomyces parapsilosis): 128 µg/mL; MIC90 (Candida parapsilosis [12]; Lodderomyces parapsilosis): 256 µg/mL |
| NYSTATIN | 8 µg/mL | 8 µg/mL | 8 µg/mL | 16 µg/mL | 8 µg/mL | 16 µg/mL | 8 µg/mL | 16 µg/mL | 8 µg/mL | 8 µg/mL | 16 µg/mL | 16 µg/mL | 8 µg/mL | 8 µg/mL | 8 µg/mL | 8 µg/mL | 8 µg/mL | 16 µg/mL | 8 µg/mL | 16 µg/mL | MIC50 (Candida parapsilosis [12]): 8 µg/mL; MIC90 (Candida parapsilosis [12]): 8 µg/mL |
| C[C@@H]1[C@H](O)[C@@H](C)/C=C/C=C/C=C/C=C/C=C/C=C/C=C/[C@H](O[C@@H]2O[C@H](C)[C@@H](O)[C@H](N)[C@@H]2O)C[C@@H]2O[C@](O)(C[C@@H](O)C[C@@H](O)[C@H](O)CC[C@@H](O)C[C@@H](O)CC(=O)O[C@H]1C)C[C@H](O)[C@H]2C(=O)O [AMPHOTERICIN B] | 1 µg/mL (≈ 1.08 µM) | 1 µg/mL (≈ 1.08 µM) | 0.25 µg/mL (≈ 0.271 µM) | 0.5 µg/mL (≈ 0.541 µM) | 0.25 µg/mL (≈ 0.271 µM) | 0.5 µg/mL (≈ 0.541 µM) | 0.25 µg/mL (≈ 0.271 µM) | 0.5 µg/mL (≈ 0.541 µM) | 1 µg/mL (≈ 1.08 µM) | 1 µg/mL (≈ 1.08 µM) | 0.5 µg/mL (≈ 0.541 µM) | 1 µg/mL (≈ 1.08 µM) | 1 µg/mL (≈ 1.08 µM) | 2 µg/mL (≈ 2.16 µM) | 1 µg/mL (≈ 1.08 µM) | 1 µg/mL (≈ 1.08 µM) | 0.25 µg/mL (≈ 0.271 µM) | 0.5 µg/mL (≈ 0.541 µM) | 0.25 µg/mL (≈ 0.271 µM) | 0.5 µg/mL (≈ 0.541 µM) | MIC (Candida parapsilosis [12]; Lodderomyces parapsilosis): 1 µg/mL (≈ 1.08 µM); MIC50 (Candida parapsilosis [12]; Lodderomyces parapsilosis): 1 µg/mL (≈ 1.08 µM); MIC90 (Candida parapsilosis [12]; Lodderomyces parapsilosis): 1 µg/mL (≈ 1.08 µM) |
| C[C@@H](c1ncncc1F)[C@](O)(Cn1cncn1)c1ccc(F)cc1F [VORICONAZOLE] | 0.03 µg/mL (≈ 0.0859 µM) | > 16 µg/mL | 0.25 µg/mL (≈ 0.716 µM) | 2 µg/mL (≈ 5.73 µM) | 0.25 µg/mL (≈ 0.716 µM) | 2 µg/mL (≈ 5.73 µM) | 0.25 µg/mL (≈ 0.716 µM) | 2 µg/mL (≈ 5.73 µM) | 0.015 µg/mL (≈ 0.0429 µM) | 16 µg/mL (≈ 45.8 µM) | 0.25 µg/mL (≈ 0.716 µM) | 0.25 µg/mL (≈ 0.716 µM) | 0.25 µg/mL (≈ 0.716 µM) | 0.5 µg/mL (≈ 1.43 µM) | 0.06 µg/mL (≈ 0.172 µM) | 2 µg/mL (≈ 5.73 µM) | 0.25 µg/mL (≈ 0.716 µM) | 2 µg/mL (≈ 5.73 µM) | 0.25 µg/mL (≈ 0.716 µM) | 2 µg/mL (≈ 5.73 µM) | Activity (Nakaseomyces glabratus [1]): 0%; Activity (Nakaseomyces glabratus [3]): 86.4%; Activity (Pichia kudriavzevii [4]): 100%; Activity (Candida albicans [5]): 25%; Activity (Candida parapsilosis [6]): 100%; Activity (Candida albicans [7]): 75%; MIC (Candida tropicalis [8]): 0.015 µg/mL (≈ 0.0429 µM); Activity (Candida tropicalis [11]): 27.3%; MIC50 (Candida parapsilosis [12]; Lodderomyces parapsilosis): 0.015 µg/mL (≈ 0.0429 µM); MIC90 (Candida parapsilosis [12]; Lodderomyces parapsilosis): 0.12 µg/mL (≈ 0.344 µM); Activity (Candida parapsilosis [13]): 0%; Activity (Pichia kudriavzevii [14]): 0%; Activity (Candida tropicalis [15]): 72.7% |
| CCC(C)n1ncn(-c2ccc(N3CCN(c4ccc(OCC5COC(Cn6cncn6)(c6ccc(Cl)cc6Cl)O5)cc4)CC3)cc2)c1=O (centres undefined) [ITRACONAZOLE] | 0.12 µg/mL (≈ 0.17 µM) | 16 µg/mL (≈ 22.7 µM) | 0.06 µg/mL (≈ 0.085 µM) | > 16 µg/mL | 0.06 µg/mL (≈ 0.085 µM) | > 16 µg/mL | 0.06 µg/mL (≈ 0.085 µM) | > 16 µg/mL | 0.03 µg/mL (≈ 0.0425 µM) | 0.12 µg/mL (≈ 0.17 µM) | 0.03 µg/mL (≈ 0.0425 µM) | 0.06 µg/mL (≈ 0.085 µM) | 0.5 µg/mL (≈ 0.709 µM) | 0.5 µg/mL (≈ 0.709 µM) | 0.12 µg/mL (≈ 0.17 µM) | 0.5 µg/mL (≈ 0.709 µM) | 0.06 µg/mL (≈ 0.085 µM) | > 16 µg/mL | 0.06 µg/mL (≈ 0.085 µM) | > 16 µg/mL | Activity (Nakaseomyces glabratus [1]): 4.6%; Activity (Nakaseomyces glabratus [3]): 72.7%; Activity (Pichia kudriavzevii [4]): 10%; Activity (Candida albicans [5]): 48.1%; Activity (Candida parapsilosis [6]): 63.6%; Activity (Candida albicans [7]): 50%; Activity (Candida tropicalis [11]): 0%; MIC50 (Candida parapsilosis [12]; Lodderomyces parapsilosis): 0.06 µg/mL (≈ 0.085 µM); MIC90 (Candida parapsilosis [12]; Lodderomyces parapsilosis): 0.25 µg/mL (≈ 0.354 µM); Activity (Candida parapsilosis [13]): 0%; Activity (Pichia kudriavzevii [14]): 0%; Activity (Candida tropicalis [15]): 100% |
